Measured values published in patent publication US7001897B2, “1-methylcarbapenem derivatives” (Sankyo Company, Limited, priority 2000, dated 2006).
≈ marks a conversion by molar mass, not a printed value. Where a name gives a salt, the structure may show the parent alone. Read-outs that look alike come from different tables or passages of the source.

Legend:
[1] = system: Haemophilis influenzae strain 9787 (a strain producing β-lactamase); test: In vitro antibacterial activity, agar plate dilution method; type: cell-based; details: read-out: Minimum Concentration to Inhibit Growth of the Employed Bacteria C
Experimental: (§1) To assess the antibacterial activities of the compounds, the minimum concentrations (μg/ml) of the compounds to inhibit growth of various pathogenic bacteria were determined by agar plate dilution method. In this Table, the employed bacteria A, B, and C were as follow: • A: Staphylococcus aureus • B: Streptococcus pneumoniae • C: Haemophilis influenzae strain 9787 (a strain producing β-lactamase)

[2] = system: Staphylococcus aureus; test: as above; type: cell-based; details: read-out: Minimum Concentration to Inhibit Growth of the Employed Bacteria A
Experimental: as §1

[3] = system: Streptococcus pneumoniae; test: as above; type: cell-based; details: read-out: Minimum Concentration to Inhibit Growth of the Employed Bacteria B
Experimental: as §1

[4] = system: S. pneumoniae 9605 (PRSP); test: In vivo antibacterial activity, intraperitoneal infection of mice; details: Streptococcus pneumoniae, 168 h; male ddY mice, i.p. S. pneumoniae 9605 (PRSP), single subcutaneous treatment, Probit method from survival rates 7 days after infection
Experimental: Male ddY mice of 4 weeks old (purchased from SLC Japan) were intraperitoneally inoculated with S. pneumoniae 9605 (PRSP) at a volume of 0.2 ml (containing 5% mucin, 1-5×10^3 colony forming unit (cfu)/mouse). Immediately after the mice were infected, they were subcutaneously treated with the test compound singly at a volume of 0.1 ml. Seven mice were used per group. A solution of the test compound prepared by 2-step dilution was used for the experiment. ED50 values of the compounds were calculated by the Probit method from survival rates 7 days after infection.

[5] = Pharmacokinetics, plasma concentration by bioassay after subcutaneous injection; type: in vivo; details: mouse, sc, mice (ddY, male), 20 mg/kg subcutaneous; for AUC: read-out: AUCall (area under the concentration-time curve in plasma); for Cmax: read-out: Cmax (maximal plasma concentration); for half-life: read-out: T1/2 (half-life in plasma concentration) (converted)
Experimental: The compounds of the present invention compound (20 mg/kg) was subcutaneously injected to mice (n=3, ddY, male, purchased from SLC Japan). The plasma concentration of the compound was determined by a bioassay method at 5, 15, and 30 min, and 1, 1.5, and 2 hr after administration. In the Table, Cmax, T1/2, and AUCall indicate the maximal plasma concentration, half-life in plasma concentration, and area under the concentration-time curve in plasma of the compound, respectively.

[6] = C: Haemophilis influenzae strain 9787 (β-lactamase producing), agar plate dilution
[7] = A: Staphylococcus aureus, agar plate dilution
[8] = B: Streptococcus pneumoniae, agar plate dilution

| MIC [1, 6] | MIC [2, 7] | MIC [3, 8] | Compound | other results |
| --- | --- | --- | --- | --- |
| 0.39 µg/mL | 0.025 µg/mL | 0.1 µg/mL | C[C@@H](O)[C@H]1C(=O)N2C(C(=O)[O-])=C(SC3CN(c4nc(C(=O)N5CCSCC5)cs4)C3)[C@H](C)[C@H]12.[Na+] [Example 25, (1R,5S,6S)-2-[1-(4-Thiomorpholinocarbonyl-1,3-thiazol-2-yl)azetidin-3-yl]thio-6-[(R)-1-hydroxyethyl]-1-methylcarbapen-2-em-3-carboxylic acid sodium salt] | – |
| 0.1 µg/mL | 0.05 µg/mL | 0.2 µg/mL | C[C@@H](O)[C@H]1C(=O)N2C(C(=O)[O-])=C(S[C@@H]3CCN(c4nc(C(N)=O)cs4)C3)[C@H](C)[C@H]12.[Na+] [Example 19, (1R,5S,6S)-2-[(3R)-1-(4-Carbamoyl-1,3-thiazol-2-yl)pyrrolidin-3-yl]thio-6-[(R)-1-hydroxyethyl]-1-methylcarbapen-2-em-3-carboxylic acid sodium salt] | – |
| 0.78 µg/mL | ≤ 0.012 µg/mL | ≤ 0.012 µg/mL | C[C@@H](O)[C@H]1C(=O)N2C(C(=O)O)=C(SC3CN(c4nc(CNC(=O)c5ccccc5)cs4)C3)[C@H](C)[C@H]12 [Example 69, (1R,5S,6S)-2-{1-[4-(benzoylaminomethyl)-1,3-thiazol-2-yl]azetidin-3-yl}thio-6-[(R)-1-hydroxyethyl]-1-methylcarbapen-2-em-3-carboxylic acid sodium salt] | – |
| 0.39 µg/mL | ≤ 0.012 µg/mL | ≤ 0.012 µg/mL | C[C@@H](O)[C@H]1C(=O)N2C(C(=O)O)=C(SC3CN(c4nc(CNC(=O)c5cccs5)cs4)C3)[C@H](C)[C@H]12 [Example 71, (1R,5S,6S)-2-(1-{4-[(Thiophene-2-carbonylamino)methyl]-1,3-thiazol-2-yl}azetidin-3-yl)thio-6-[(R)-1-hydroxyethyl]-1-methylcarbapen-2-em-3-carboxylic acid sodium salt] | – |
| 0.2 µg/mL | 0.05 µg/mL | 0.2 µg/mL | C[C@@H](O)[C@H]1C(=O)N2C(C(=O)[O-])=C(SC3CN(c4nc(C(=O)N(C)C)cs4)C3)[C@H](C)[C@H]12.[Na+] [Example 6, (1R,5S,6S)-2-[1-(4-N,N-Dimethylcarbamoyl-1,3-thiazol-2-yl)azetidin-3-yl]thio-6-[(R)-1-hydroxyethyl]-1-methylcarbapen-2-em-3-carboxylic acid sodium salt] | – |
| 0.39 µg/mL (≈ 0.817 µM) | ≤ 0.012 µg/mL | 0.2 µg/mL (≈ 0.419 µM) | C[C@@H](O)[C@H]1C(=O)N2C(C(=O)O)=C(SC3CN(c4nc(C(=O)N[C@@H]5CCNC5)co4)C3)[C@H](C)[C@H]12 [Example 81, (1R,5S,6S)-2-{1-[4-((3R)-pyrrolidin-3-ylcarbamoyl)-1,3-oxazol-2-yl]azetidin-3-yl}thio-6-[(R)-1-hydroxyethyl]-1-methylcarbapen-2-em-3-carboxylic acid] | – |
| 0.05 µg/mL | ≤ 0.012 µg/mL | 0.025 µg/mL | C[C@@H](O)[C@H]1C(=O)N2C(C(=O)[O-])=C(SC3CN(c4nc(C(=O)N5CCC5)cs4)C3)[C@H](C)[C@H]12.[Na+] [Example 24, (1R,5S,6S)-2-[1-(4-Azetidinocarbonyl-1,3-thiazol-2-yl)azetidin-3-yl]thio-6-[(R)-1-hydroxyethyl]-1-methylcarbapen-2-em-3-carboxylic acid sodium salt] | – |
| 0.2 µg/mL (≈ 0.417 µM) | ≤ 0.012 µg/mL | 0.2 µg/mL (≈ 0.417 µM) | C[C@@H](O)[C@H]1C(=O)N2C(C(=O)O)=C(SC3CN(c4nc(C(=O)NC5CNC5)cs4)C3)[C@H](C)[C@H]12 [Example 59, (1R,5S,6S)-2-{1-[4-(azetidin-3-ylcarbamoyl)-1,3-thiazol-2-yl]azetidin-3-yl}thio-6-[(R)-1-hydroxyethyl]-1-methylcarbapen-2-em-3-carboxylic acid] | ED50 [4]: 1.08 mg/kg |
| 0.39 µg/mL (≈ 0.817 µM) | 0.025 µg/mL (≈ 0.0524 µM) | 0.2 µg/mL (≈ 0.419 µM) | C[C@@H](O)[C@H]1C(=O)N2C(C(=O)O)=C(SC3CN(c4nc(C(=O)N[C@H]5CCNC5)co4)C3)[C@H](C)[C@H]12 [Example 80, (1R,5S,6S)-2-{1-[4-((3S)-pyrrolidin-3-ylcarbamoyl)-1,3-oxazol-2-yl]azetidin-3-yl}thio-6-[(R)-1-hydroxyethyl]-1-methylcarbapen-2-em-3-carboxylic acid] | – |
| 0.39 µg/mL (≈ 0.834 µM) | 0.025 µg/mL (≈ 0.0535 µM) | 0.2 µg/mL (≈ 0.428 µM) | C[C@@H](O)[C@H]1C(=O)N2C(C(=O)O)=C(SC3CN(c4nc(C(=O)NCCN)cs4)C3)[C@H](C)[C@H]12 [Example 61, (1R,5S,6S)-2-{1-[4-((2-aminoethyl)carbamoyl)-1,3-thiazol-2-yl]azetidin-3-yl}thio-6-[(R)-1-hydroxyethyl]-1-methylcarbapen-2-em-3-carboxylic acid] | ED50 [4]: 1.79 mg/kg |
| 0.2 µg/mL (≈ 0.394 µM) | 0.05 µg/mL (≈ 0.0985 µM) | 0.2 µg/mL (≈ 0.394 µM) | C[C@@H](O)[C@H]1C(=O)N2C(C(=O)O)=C(SC3CN(c4nc(C(=O)NC5CCNCC5)cs4)C3)[C@H](C)[C@H]12 [Example 56, (1R,5S,6S)-2-{1-[4-(piperidin-4-ylcarbamoyl)-1,3-thiazol-2-yl]azetidin-3-yl}thio-6-[(R)-1-hydroxyethyl]-1-methylcarbapen-2-em-3-carboxylic acid] | – |
| 0.1 µg/mL | 0.05 µg/mL | 0.2 µg/mL | C[C@@H](O)[C@H]1C(=O)N2C(C(=O)[O-])=C(SC3CN(c4nc(C(N)=O)co4)C3)[C@H](C)[C@H]12.[Na+] [Example 22, (1R,5S,6S)-2-[1-(4-Carbamoyl-1,3-oxazol-2-yl)azetidin-3-yl]thio-6-[(R)-1-hydroxyethyl]-1-methylcarbapen-2-em-3-carboxylic acid sodium salt] | – |
| 0.2 µg/mL | 0.05 µg/mL | 0.2 µg/mL | CNC(=O)c1csc(N2CC(SC3=C(C(=O)[O-])N4C(=O)[C@H]([C@@H](C)O)[C@H]4[C@H]3C)C2)n1.[Na+] [Example 5, (1R,5S,6S)-2-[1-(4-N-Methylcarbamoyl-1,3-thiazol-2-yl)azetidin-3-yl]thio-6-[(R)-1-hydroxyethyl]-1-methylcarbapen-2-em-3-carboxylic acid sodium salt] | – |
| – | – | – | C[C@@H](O)[C@H]1C(=O)N2C(C(=O)[O-])=C(SC3CN(c4nc(C(=O)N5CCOCC5)cs4)C3)[C@H](C)[C@H]12.[Na+] [Example 11, (1R,5S,6S)-2-[1-(4-Morpholinocarbonyl-1,3-thiazol-2-yl)azetidin-3-yl]thio-6-[(R)-1-hydroxyethyl]-1-methylcarbapen-2-em-3-carboxylic acid sodium salt] | AUC [5]: 40400 ng·h/mL; Cmax [5]: 56.6 µg/mL; half-life [5]: 19.8 min |
| – | – | – | C[C@@H](O)[C@H]1C(=O)N2C(C(=O)[O-])=C(SC3CN(c4nc(C#N)cs4)C3)[C@H](C)[C@H]12.[Na+] [Example 4, (1R,5S,6S)-2-[1-(4-Cyano-1,3-thiazol-2-yl)azetidin-3-yl]thio-6-[(R)-1-hydroxyethyl]-1-methylcarbapen-2-em-3-carboxylic acid sodium salt] | AUC ([5]; in vivo): 165000 ng·h/mL; Cmax ([5]; in vivo): 157 µg/mL; half-life ([5]; in vivo): 61.2 min; MIC [1]: 0.2 µg/mL; MIC ([2]; Staphylococcus aureus): 0.05 µg/mL; MIC ([3]; Streptococcus pneumoniae): 0.2 µg/mL |
| 0.1 µg/mL | 0.05 µg/mL | 0.2 µg/mL | C[C@@H](O)[C@H]1C(=O)N2C(C(=O)[O-])=C(SC3CN(c4nc(C(N)=O)cs4)C3)[C@H](C)[C@H]12.[Na+] [Example 3, (1R,5S,6S)-2-[1-(4-Carbamoyl-1,3-thiazol-2-yl)azetidin-3-yl]thio-6-[(R)-1-hydroxyethyl]-1-methylcarbapen-2-em-3-carboxylic acid sodium salt] | AUC [5]: 83900 ng·h/mL; Cmax [5]: 127 µg/mL; half-life [5]: 15 min |
| 0.2 µg/mL | ≤ 0.012 µg/mL | 0.025 µg/mL | C[C@@H](O)[C@H]1C(=O)N2C(C(=O)O)=C(SC3CN(c4nc(CNC(=O)c5ccco5)cs4)C3)[C@H](C)[C@H]12 [Example 72, (1R,5S,6S)-2-(1-{4-[(furan-2-carbonylamino)methyl]-1,3-thiazol-2-yl}azetidin-3-yl)thio-6-[(R)-1-hydroxyethyl]-1-methylcarbapen-2-em-3-carboxylic acid sodium salt] | – |
